Experimental findings from US20040167188A1, “Protein-tyrosine phosphatase inhibitors and uses thereof” (priority 2003, published 2004) are described below.

For one assay, the target named is T1, CD45 (Homo sapiens, UniProt P08575).
T1 construct: purchased Biomol Research Laboratories, Inc. SE-135
T1 sequence (P08575 609-1306 limits assumed): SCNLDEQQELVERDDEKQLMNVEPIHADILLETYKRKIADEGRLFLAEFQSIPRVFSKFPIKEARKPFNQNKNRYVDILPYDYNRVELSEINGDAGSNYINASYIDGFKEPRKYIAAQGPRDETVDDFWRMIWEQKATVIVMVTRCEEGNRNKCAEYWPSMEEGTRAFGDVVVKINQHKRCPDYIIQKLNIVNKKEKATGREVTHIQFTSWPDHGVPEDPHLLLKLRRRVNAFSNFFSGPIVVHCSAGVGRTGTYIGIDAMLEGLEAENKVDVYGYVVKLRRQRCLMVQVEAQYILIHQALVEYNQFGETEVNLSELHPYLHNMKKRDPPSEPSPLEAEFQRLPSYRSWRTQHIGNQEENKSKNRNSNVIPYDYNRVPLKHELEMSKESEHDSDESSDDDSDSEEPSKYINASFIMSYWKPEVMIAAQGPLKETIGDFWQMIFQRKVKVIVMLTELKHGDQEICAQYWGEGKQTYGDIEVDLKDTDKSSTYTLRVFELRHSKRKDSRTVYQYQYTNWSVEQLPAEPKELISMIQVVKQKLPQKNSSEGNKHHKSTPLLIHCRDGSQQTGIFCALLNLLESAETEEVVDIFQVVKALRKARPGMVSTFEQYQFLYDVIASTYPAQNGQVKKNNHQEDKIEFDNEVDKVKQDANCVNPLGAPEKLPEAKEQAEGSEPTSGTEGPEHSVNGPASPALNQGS
In words: Inhibition constant determination, selectivity panel: CD45 (pNPP hydrolysis). Type of assay: biochemical. The settings on record: competitive Ki; pNPP substrate; read-out: Phosphatase Inhibition Constants (Kic) CD45. The procedure: CD45 was obtained commercially (catalog#SE-135 Biomol Research Laboratories, Inc. 5120 Butler Pike, Plymouth Meeting, Pa.).
(§1) The Kic and Kiu values are calculated as described for PTP1B. The assays were performed as described for PTP-1B except for the following changes. All the phosphatases except PP2B use the same 2× assay buffer as PTP1B. PP2B uses a 2× assay buffer which contains 100 mM TRIS-HCl pH 8.6, 40 mM MgCl2, 0.2 mM CaCl2, 6 mM DTT, 0.2 mg/mL BSA. The concentrations of pNPP present in 40 ul were the same for TCPTP, CD45, LAR and PTP1B. For PP2B they were 24 mM, 60 mM, 150 mM, and 375 mM; for cdc25C they were 16 mM, 40 mM, 100 mM, and 250 mM; for SHP-2 they were 6.4 mM, 16 mM, 40 mM, and 100 mM.

In the next assay the target is T2, Bovine PP2B (Bos taurus, UniProt P48452).
T2 construct: purchased Sigma C1907
In words: Inhibition constant determination, selectivity panel: PP2B (pNPP hydrolysis). Type of assay: biochemical. The settings on record: competitive Ki; pNPP substrate; read-out: Phosphatase Inhibition Constants (Kic) PP2B. The procedure:
Bovine PP2B was obtained commercially (C1907 Sigma, St. Louis, Mo.).
as §1

Assay [1] addresses T3, CDC25c (fusion with glutathione-S-transferase) (Homo sapiens, UniProt P30307).
T3 sequence (P30307 1-473): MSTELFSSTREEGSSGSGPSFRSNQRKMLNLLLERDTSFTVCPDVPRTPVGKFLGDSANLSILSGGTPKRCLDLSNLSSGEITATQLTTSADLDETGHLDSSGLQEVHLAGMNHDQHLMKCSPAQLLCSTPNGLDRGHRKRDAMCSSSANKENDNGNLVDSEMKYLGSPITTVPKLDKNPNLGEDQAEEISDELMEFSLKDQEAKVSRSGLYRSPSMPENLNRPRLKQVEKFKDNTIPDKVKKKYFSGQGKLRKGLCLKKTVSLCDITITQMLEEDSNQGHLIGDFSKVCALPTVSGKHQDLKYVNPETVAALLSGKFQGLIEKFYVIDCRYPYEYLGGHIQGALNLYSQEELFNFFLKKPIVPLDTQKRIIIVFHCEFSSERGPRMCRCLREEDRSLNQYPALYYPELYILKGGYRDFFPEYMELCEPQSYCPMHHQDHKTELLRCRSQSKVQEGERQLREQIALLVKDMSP
Description: Inhibition constant determination, selectivity panel: cdc25c (pNPP hydrolysis). The format is biochemical. The settings on record: competitive Ki; pNPP substrate; read-out: Phosphatase Inhibition Constants (Kic) Cdc25c. The procedure:
CDC25c was expressed as a fusion with glutathione-S— transferase (aka GST) in E. coli. Cells were lysed and debris removed as described for SHP-2, except lysis was in PBS (GibcoBRL Life Technologies, Grand Island, N.Y., Stock # 70011-044, diluted 10-fold). The soluble proteins were chromatographed on Glutathione-Sepharose FF (Amersham Pharmacia Biotech) and eluted with 10 mM reduced glutathione in 25 mM TRIS-HCl, pH 7.5, 150 mM NaCl. Fractions were assayed, pooled and stored as decribed for PTP1B.
as §1

The target of a further assay is T4, SHP-2 (full length) (Homo sapiens, UniProt Q06124).
T4 sequence (Q06124 1-593): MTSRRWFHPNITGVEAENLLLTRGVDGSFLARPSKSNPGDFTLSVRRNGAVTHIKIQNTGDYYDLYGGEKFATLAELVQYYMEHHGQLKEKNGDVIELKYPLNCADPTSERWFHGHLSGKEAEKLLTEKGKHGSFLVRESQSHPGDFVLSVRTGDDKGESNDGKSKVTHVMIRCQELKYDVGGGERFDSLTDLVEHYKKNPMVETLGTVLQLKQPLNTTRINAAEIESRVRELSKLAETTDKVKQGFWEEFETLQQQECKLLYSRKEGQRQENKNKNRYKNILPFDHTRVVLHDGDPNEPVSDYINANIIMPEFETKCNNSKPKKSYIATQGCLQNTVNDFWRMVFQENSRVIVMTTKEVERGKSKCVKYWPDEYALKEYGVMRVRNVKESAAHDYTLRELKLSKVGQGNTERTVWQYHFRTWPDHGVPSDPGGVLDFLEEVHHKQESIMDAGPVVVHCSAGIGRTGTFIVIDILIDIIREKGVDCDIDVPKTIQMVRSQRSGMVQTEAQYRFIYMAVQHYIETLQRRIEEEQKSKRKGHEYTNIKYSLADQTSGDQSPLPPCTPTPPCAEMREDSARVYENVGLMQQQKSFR
In words: Inhibition constant determination, selectivity panel: SHP-2 (pNPP hydrolysis). Type of assay: biochemical. The settings on record: competitive Ki; pNPP substrate; read-out: Phosphatase Inhibition Constants (Kic) SHP-2. The procedure:
Cells were lysed with a French press following by centrifugation to remove debris. Proteins were precipitated with 50% saturated ammonium sulfate, recovered by centrifugation, and chromatographed on Sephadex G-25 (Amersham Pharmacia Biotech) in 50 mM Tris-HCl pH 8, 10 mM NaCl, 1 mM DTT, 1 mM EDTA. The void volume was pooled and chromatographed on Q-Sepharose-FF in the same buffer, and SHP-2 was eluted with a 0-150 mM gradient of NaCl in the same buffer. Fractions were assayed, pooled, and stored as described for PTP1B.
as §1

The next assay has as its target T5, LAR (Homo sapiens, UniProt P10586).
T5 construct: purchased New England Biolabs P0750L
T5 sequence (P10586 1301-1639 limits assumed): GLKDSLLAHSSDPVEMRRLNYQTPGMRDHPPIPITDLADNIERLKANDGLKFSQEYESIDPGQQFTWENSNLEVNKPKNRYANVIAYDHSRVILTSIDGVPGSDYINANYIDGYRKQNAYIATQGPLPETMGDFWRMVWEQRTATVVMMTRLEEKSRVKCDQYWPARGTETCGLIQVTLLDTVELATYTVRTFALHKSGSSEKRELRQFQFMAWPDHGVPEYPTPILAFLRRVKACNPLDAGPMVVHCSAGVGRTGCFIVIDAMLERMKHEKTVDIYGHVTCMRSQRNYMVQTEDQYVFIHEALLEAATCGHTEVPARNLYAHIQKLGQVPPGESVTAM
Description: Inhibition constant determination, selectivity panel: LAR (pNPP hydrolysis). Type of assay: biochemical. The settings on record: competitive Ki; pNPP substrate; read-out: Phosphatase Inhibition Constants (Kic) LAR.

Assay [2] addresses T6, TCPTP (Homo sapiens, UniProt P17706).
T6 sequence (P17706 1-283): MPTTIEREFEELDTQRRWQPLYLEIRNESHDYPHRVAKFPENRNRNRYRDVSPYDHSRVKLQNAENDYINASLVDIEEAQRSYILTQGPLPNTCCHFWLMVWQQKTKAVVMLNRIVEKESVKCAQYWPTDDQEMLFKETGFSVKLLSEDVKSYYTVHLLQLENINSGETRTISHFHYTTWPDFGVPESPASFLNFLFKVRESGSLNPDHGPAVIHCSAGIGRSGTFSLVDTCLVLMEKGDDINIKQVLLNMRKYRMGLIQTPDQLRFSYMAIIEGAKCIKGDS
In words: biochemical.

Assay [3] concerns the target T6, TCPTP. The settings on record: read-out: Phosphatase Inhibition Constants (Kic) TC-PTP; competitive Ki, +/- S.D.; pNPP substrate.
In assay [4] the target is T7, Human protein tyrosine phosphatase 1B (PTP1B, amino acid residues 1-321) (Homo sapiens, UniProt P18031).
T7 sequence (P18031 1-321): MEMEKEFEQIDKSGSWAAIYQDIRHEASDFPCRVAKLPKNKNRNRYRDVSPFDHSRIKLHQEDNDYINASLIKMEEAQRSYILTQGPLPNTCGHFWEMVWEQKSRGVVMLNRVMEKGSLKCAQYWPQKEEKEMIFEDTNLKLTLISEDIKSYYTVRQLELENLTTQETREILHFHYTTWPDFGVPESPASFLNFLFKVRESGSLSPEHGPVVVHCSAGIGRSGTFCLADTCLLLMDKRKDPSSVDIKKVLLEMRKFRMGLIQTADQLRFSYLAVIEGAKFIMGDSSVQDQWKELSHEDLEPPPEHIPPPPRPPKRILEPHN
The settings on record: read-out: Phosphatase Inhibition Constants (Kic) PTP1B; competitive Ki, +/- S.D.; pNPP substrate.
Description: Human protein tyrosine phosphatase 1B (PTP1B, amino acid residues 1-321) was expressed in E. coli BL21 (DE3). The cell paste was resuspended in 4 cell paste volumes of lysis buffer containing 100 mM MES (pH 6.5), 100 mM NaCl, 1 mM EDTA, 1 mM DTT, 1 mM PMSF, 20 U/mL Benzonase, 0.5 mg/mL lysozyme, and 1 mM MgCl2 and incubated for 35 minutes at room temperature. The cells were lysed at 11,000 psi using a Rannie homogenizer, and the homogenate was clarified in a Beckman GSA rotor at 10,000×g for 30 minutes at 4° C. […] After sample application, the column was washed with 10 column volume (CV) of the same buffer, PTP1B was eluted with a 20 CV linear gradient of 100 mM to 500 mM NaCl in the same buffer. The fractions (28 mL each) were assayed for purity by 10-20% Tris-Glycine SDS-PAGE. Fractions which contained >95% protein tyrosine phosphatase 1 B were combined. These fractions were concentrated to approximately 10 mg/mL by ultrafiltration and chromatographed on a 180 mL (1.6 cm×90 cm) Superdex 75 column in 10 mM TRIS-HCl, pH 7.5, 25 mM NaCl, 0.2 mM EDTA, 3 mM DTT. The fractions (2 mL each) were assayed for purity by 10-20% Tris-Glycine SDS-PAGE. Fractions which contained >99% protein tyrosine phosphatase 1 B were combined. Aliquots were frozen in liquid N2 and stored at −70° C. until used. Once thawed, PTP1B was stored on ice and used within 6 hours.

SMILES strings stand for the structures. Where two headings read alike, the source gives them in different places. Some results are limits rather than exact numbers.

T2 sequence (P63099 2-170 partner limits assumed, other chains not shown): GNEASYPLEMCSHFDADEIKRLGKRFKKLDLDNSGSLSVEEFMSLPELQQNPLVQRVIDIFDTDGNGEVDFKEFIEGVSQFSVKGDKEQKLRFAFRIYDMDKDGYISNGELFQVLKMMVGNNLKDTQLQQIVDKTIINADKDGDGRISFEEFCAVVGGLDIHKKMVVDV

Regarding `COC(=O)c1c(O)cccc1OC/C=C/c1cccc(-c2cc(C(=O)O)no2)c1` [Example 1, 5-(3-((1E)-3-(3-hydroxy-2-(methoxycarbonyl)phenoxy)prop-1-enyl)phenyl)isoxazole-3-carboxylic Acid], the Ki at CD45 is greater than 300 µM; at Bovine PP2B, greater than 300 µM; in assay [1] it was greater than 300 µM; at SHP-2 (full length) it was greater than 300 µM; at LAR it was greater than 300 µM; at TCPTP [2], 202 µM.

Regarding `COC(=O)c1c(O)cccc1OC/C=C/c1ccc(F)c(-c2cc(C(=O)O)no2)c1` [Example 8, 5-(2-fluoro-5-((1E)-3-(3-hydroxy-2-(methoxycarbonyl)phenoxy)prop-1-enyl)phenyl)isoxazole-3-carboxylic Acid], the Ki on CD45 is greater than 300 µM; on TCPTP [3], 164 µM; at Bovine PP2B, greater than 300 µM; in assay [1] it was greater than 300 µM; on SHP-2 (full length) it was greater than 300 µM; in assay [4] it was 6.9 µM.
